Test results reported in PubChem BioAssay AID1963848 (Molecular Pharmacology Branch, DTP, NCI, 2024).
pIC50: −log10 of the molar value.

Test system: 379773-124-R-J2-PDC spheroid viability
Test: Anticancer human tumor 379773-124-R-J2-PDC patient-derived endometrial carcinoma cell line growth inhibition [POLQ]
Details: spheroids with HUVEC and MSC; for pIC50: curve of first compound; for viability, T/C: stronger effect = lower value
Method in brief: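 Complex spheroid viability model combining PDC tumour cells with endothelial (HUVEC) and MSC stromal cells. Novobiocin, ART-558 or RP6685 were tested singly and in combination with standard and investigational anticancer drugs. Each was titrated in half-log steps from near clinical Cmax, or from 10 microM where Cmax was unknown.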
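Further: spheroids exposed to drugs for seven days before readout.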
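Wherever viability, T/C is given: percent viability relative to DMSO vehicle control taken as 100%.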

Work on C#Cc1c(F)ccc2cc(O)cc(-c3ncc4c(N5CC6CCC(C5)N6)nc(OCC56CCCN5CC(F)C6)nc4c3F)c12 (configuration not stated) + Nc1ccc(C#CCN(C(=O)Cc2ncc(C(F)(F)F)cc2C(F)(F)F)c2ccc(F)cc2)nn1 yielded a pIC50 (second compound 0.0316 µM) of less than 5.00, a pIC50 (second compound 0.1 µM) of less than 5.00 and a pIC50 (second compound 0.316 µM) of less than 5.00. For the same compound, the pIC50 (second compound 1 µM) was less than 5.00, the pIC50 (second compound 3.16 µM) was less than 5.00 and the pIC50 (second compound 10 µM) was less than 5.00. For the same compound, the viability, T/C (second compound 0.0316 µM, first compound 0.0316 µM) was 92.3%, the viability, T/C (second compound 0.0316 µM, first compound 0.1 µM) was 91.9% and the viability, T/C (second compound 0.0316 µM, first compound 0.316 µM) was 95.5%. The viability, T/C (second compound 0.0316 µM, first compound 1 µM) was 89.1%, the viability, T/C (second compound 0.0316 µM, first compound 3.16 µM) was 95.8% and the viability, T/C (second compound 0.0316 µM, first compound 10 µM) was 101%. It also gave a viability, T/C (second compound 0.1 µM, first compound 0.0316 µM) of 92.7%, a viability, T/C (second compound 0.1 µM, first compound 0.1 µM) of 110% and a viability, T/C (second compound 0.1 µM, first compound 0.316 µM) of 88.6%. The viability, T/C (second compound 0.1 µM, first compound 1 µM) was 98%, the viability, T/C (second compound 0.1 µM, first compound 3.16 µM) was 103% and the viability, T/C (second compound 0.1 µM, first compound 10 µM) was 107%. The viability, T/C (second compound 0.316 µM, first compound 0.0316 µM) was 91.3%, the viability, T/C (second compound 0.316 µM, first compound 0.1 µM) was 89.3% and the viability, T/C (second compound 0.316 µM, first compound 0.316 µM) was 92.1%. For the same compound, the viability, T/C (second compound 0.316 µM, first compound 1 µM) was 94.3%, the viability, T/C (second compound 0.316 µM, first compound 3.16 µM) was 104% and the viability, T/C (second compound 0.316 µM, first compound 10 µM) was 111%. The viability, T/C (second compound 1 µM, first compound 0.0316 µM) was 84.5%, the viability, T/C (second compound 1 µM, first compound 0.1 µM) was 97.6% and the viability, T/C (second compound 1 µM, first compound 0.316 µM) was 99.9%. It also gave a viability, T/C (second compound 1 µM, first compound 1 µM) of 86.1%, a viability, T/C (second compound 1 µM, first compound 3.16 µM) of 106% and a viability, T/C (second compound 1 µM, first compound 10 µM) of 103%. It also gave a viability, T/C (second compound 3.16 µM, first compound 0.0316 µM) of 99.3%, a viability, T/C (second compound 3.16 µM, first compound 0.1 µM) of 88.7% and a viability, T/C (second compound 3.16 µM, first compound 0.316 µM) of 105%. The viability, T/C (second compound 3.16 µM, first compound 1 µM) was 103%, the viability, T/C (second compound 3.16 µM, first compound 3.16 µM) was 103% and the viability, T/C (second compound 3.16 µM, first compound 10 µM) was 104%. For the same compound, the viability, T/C (second compound 10 µM, first compound 0.0316 µM) was 88.9%, the viability, T/C (second compound 10 µM, first compound 0.1 µM) was 88.6% and the viability, T/C (second compound 10 µM, first compound 0.316 µM) was 98.5%. It also gave a viability, T/C (second compound 10 µM, first compound 1 µM) of 85.6%, a viability, T/C (second compound 10 µM, first compound 3.16 µM) of 91.3% and a viability, T/C (second compound 10 µM, first compound 10 µM) of 102%.
